Assay: gradient 5% acetonitrile 3 min, to 50% in 2 min, to 85% in 15 min, held 3 min, 100 µL/min
Conditions: column: Zorbax Extend-C18 2.1 x 50 mm; eluents: water / acetonitrile, 0.1% formic acid
How it was run: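 Values are retention times taken from adduct peaks that software picked and an analyst inspected. The pure standards were run as mixtures of ~100 molecules on HPLC linked to a quadrupole time-of-flight mass spectrometer, in positive and negative ionization mode. A Zorbax Extend-C18 column (2.1 × 50 mm, 1.8 μm) was used at 100 μL/min with water and acetonitrile, each including 0.1% formic acid.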

RP-LC retention time [s] | SMILES
610 | CCCc1nc2ccc(CCC(=O)Nc3ccc(OC)c(OC)c3)cc2[nH]1
884 | CCn1cc(-c2nc(CC(=O)Nc3ccc(OC)c(F)c3)cs2)c2cccnc21
792 | CC1Oc2ccc(S(=O)(=O)N3CCC(C(=O)NCCc4ccccc4)CC3)cc2NC1=O (stereo not drawn)
1050 | Cc1cc(N2CCOCC2)nc(N2CCN(C(=O)c3c(F)cccc3F)CC2)n1
974 | Cc1noc(C)c1CCNC(=O)C1CCCN(c2nc3ccccc3n(Cc3ccccc3)c2=O)C1 (stereo not drawn)
787 | CCn1c(=O)c2ccn(CC(=O)N3CCN(c4ccc(Cl)cc4)CC3)c2n(CC)c1=O
617 | CCOC(=O)Cc1csc(NC(=O)CSc2nnc3ccccn23)n1
1090 | Cc1ccc(N2CC(c3noc(-c4ccccc4C)n3)CC2=O)cc1 (stereo not drawn)
578 | O=C(CCC[C@@H]1[C@H]2CCCN3CCC[C@@H](CN1C(=O)c1cccnc1)[C@@H]23)N1CCN(c2ncccn2)CC1
994 | CCOC(=O)c1cccc(NC(=O)C2CCCN(c3ccc(=O)n(-c4cccc(Cl)c4)n3)C2)c1 (stereo not drawn)
941 | Cc1cc(-c2nnc(C3CCC3)o2)c(C)n1CC(=O)NCc1ccc(C(F)(F)F)cc1
615 | Cc1cc(C)nc(Nc2nc3ccccc3[nH]2)n1
712 | O=C(Nc1ccc2c(c1)OCCO2)N1CCC2(CCCCO2)CC1
1110 | COc1cccc(N2C(=O)C3N=NN(c4ccc(C)c(F)c4)C3C2=O)c1 (stereo not drawn)
726 | CCOC(=O)C1CCCN(C(=O)CCCSc2ccc(NC(=O)C3CC3)nn2)C1 (stereo not drawn)
813 | Cc1nnsc1C(=O)Nc1nnc(SCC(=O)Nc2ccc(F)c(Cl)c2)s1
1250 | Cc1ccc2sc(N(Cc3ccccn3)C(=O)C3COc4ccccc4O3)nc2c1C (stereo not drawn)
907 | CCC(=O)N(CCOC)CC(=O)N1CCc2sccc2C1COc1ccc(Cl)cc1 (stereo not drawn)
662 | Cc1cc(Nc2ccc(NC(=O)Nc3ccccc3)cc2)nc(N2CCOCC2)n1
1240 | CCn1c(=O)c(N2CCCC(C(=O)N3CCN(c4cccc(Cl)c4)CC3)C2)nc2ccccc21 (stereo not drawn)
872 | Cc1ccc(NC(=O)C2CC(=O)N(c3cccc(NC(=O)C(C)C)c3)C2)cc1Cl (stereo not drawn)
899 | Cc1c(S(=O)(=O)NCC2CC2)c(C)n(C)c1-c1nnc(C2CCC2)o1

RP-LC retention time [s] | SMILES
801 | NC(=O)c1cnn2c3c(cnc12)CCCCCC3
883 | Cc1oc(-c2ccc(NC(=O)CC(C)(C)C)cc2)nc1Cn1cccn1
973 | O=c1n(Cc2ccccc2)nc2c(S(=O)(=O)N3CCN(c4ccc(F)cc4)CC3)cccn12
905 | CCNC(=O)c1cc2c(n(-c3ccc(C(C)C)cc3)c1=O)CCCC2=O
830 | CC(C)Oc1cccc(NC(=O)C2CCN(S(C)(=O)=O)c3ccccc3O2)c1 (stereo not drawn)
574 | CCN(CC)C(=O)c1ccc2c(c1)N(CC(=O)N1CCN(c3ccccn3)CC1)C(=O)CO2
594 | O=C(Nc1ccc(Cl)cc1)N1CCc2nc[nH]c2C1
717 | O=C(c1ccncc1)N1CCN(C(=O)c2nnn3c2COC(c2ccc(Cl)cc2)C3)CC1 (stereo not drawn)
1150 | CCc1nc(-c2csc(S(=O)(=O)N3CCCC(C(=O)NC4CCCCCCC4)C3)c2)no1 (stereo not drawn)
954 | O=C(CCN1C(=O)c2ccccc2C1=O)OCC(=O)c1ccc(Cl)cc1Cl
843 | CC(C)OCCCNC(=O)c1nnc(-c2ccc(S(=O)(=O)N3CCCC3)cc2)o1
1000 | Cc1ccc(S(=O)(=O)N2C(=O)CCC2C(=O)N2CCc3ccccc32)cc1C (stereo not drawn)
616 | O=C(c1ccsc1)N1CCCN(c2cc(-c3ccc4c(c3)OCO4)[nH]n2)CC1
1040 | CC(C)c1ccc(N2C=C(C(=O)N3CCCCC3)S(=O)(=O)c3ccccc32)cc1
724 | Cn1nc2c(c1NC(=O)c1ccc(Cl)s1)CCC2
982 | COc1cccc(CNC(=O)C2(C)CCCN(C(=O)Nc3ccc(C)c(Cl)c3)C2)c1 (stereo not drawn)
690 | Cc1cccc(N2CCN(C(=O)C3=CCN(Cc4cccc(F)c4)CC3)CC2)c1
770 | COc1ccc(-c2cc(=O)c3c(O)cc(O)cc3o2)cc1OC
1060 | CC1=NS(=O)(=O)N(C)C=C1C(=O)OCc1nc(-c2ccc(C(F)(F)F)cc2)no1
595 | COC(=O)CNC(=O)N1Cc2ccccc2OC2(CCN(C(C)C)CC2)C1
777 | COc1ccc(C)cc1NC(=O)N1CCC2(CC1)NC(=O)c1ccc(F)cc1N2C
919 | COc1ccc(N2CC(c3noc(-c4ccccc4)n3)CC2=O)cc1 (stereo not drawn)

RP-LC retention time [s] | SMILES
705 | COc1cc(-c2nc3ncccn3c2NC2CCCC2)cc(OC)c1OC
826 | COc1ccc(C2CC(=O)N(CC(=O)NCC3CCCO3)c3ccccc3S2)cc1 (stereo not drawn)
668 | Cc1cc(NC(=O)Cn2cnc3c(oc4ccccc43)c2=O)no1
1290 | COc1cccc(-n2c(=O)c(C(=O)Nc3ccccc3Cl)c(O)c3cccnc32)c1
623 | CC1CN(C(=O)CCC(=O)N2CCN(c3ccccn3)CC2)c2ccccc2O1 (stereo not drawn)
802 | Cc1ccc(-n2nc(N3CCCN(C(=O)Nc4cccc(C)c4)CC3)ccc2=O)cc1
847 | O=C(c1c(F)cccc1F)N1CCC2(CC1)N=C(c1ccc(Cl)cc1)NO2
765 | Cc1ccc(CN2CCN(CC(C)C(=O)NCc3cc(F)ccc3F)C(=O)C2=O)cc1 (stereo not drawn)
1080 | Nc1ccccc1C(=O)Nc1ccc(Cl)cc1Cl
790 | CCOc1ccccc1N1CCN(C(=O)c2csc(C(=O)NC3CC3)n2)CC1
977 | Cc1cccc(NC(=O)N2CCCC2c2nc(-c3ccccc3)no2)c1C (stereo not drawn)
728 | CCCNC(=O)C1CCN(c2ccc(SCC(=O)Nc3cccc(C(C)C)c3)nn2)CC1
1160 | Cc1ccc(-c2noc(-c3nc(C4CC4)no3)n2)cc1
710 | O=C(NCc1ccccc1F)C1CCCN(c2nnc3c(Cl)cccn23)C1 (stereo not drawn)
679 | CC(C)CNC(=O)N1CCCC(c2nc(C(C)C)no2)CCNC(=O)CC1 (stereo not drawn)
673 | COC(=O)c1cccc(NC(=O)c2[nH]c3cc(C)sc3c2CN2CCOCC2)c1
575 | COc1cc(C(=O)N2CCN(c3cc(C)n4cnnc4n3)CC2)cc(OC)c1OC
1020 | CN(C)c1ccc2c(c1)OC(N)=C(C#N)C2c1cccc(C(F)(F)F)c1 (stereo not drawn)
787 | O=C(NCc1cscn1)C1CCN(S(=O)(=O)c2cccc(C(F)(F)F)c2)CC1
703 | COc1cc(OC)c(NC(=O)N2CC(n3cnnc3-c3ccccc3)C2)cc1Cl
588 | COC(=O)C1=C(CN2CCCC2)NC(=O)NC1c1ccccc1C (stereo not drawn)
541 | CCc1nnc2cc(N3CCN(Cc4cn[nH]c4-c4ccccc4)CC3)cnn12

RP-LC retention time [s] | SMILES
709 | Cc1nn(-c2ccc(N3CCOCC3)nn2)c(C)c1CCC(=O)Nc1ccccc1F
792 | O=C(c1ccccc1F)N1CCCn2cc(-c3ccccc3F)nc21
795 | CC(C)C(C(=O)O)N1C(=O)c2cccc3cccc(c23)C1=O (stereo not drawn)
673 | COC(=O)Nc1ccc2[nH]cc(CCNC(C)=O)c2c1
1100 | O=S(=O)(c1ccc(-c2noc(-c3ccccc3F)n2)cc1)N1CCCC1
1140 | Cc1ccc(N2C(=O)C3N=NN(Cc4nc(-c5ccccc5C)no4)C3C2=O)cc1Cl (stereo not drawn)
946 | O=C1COc2ccc(-c3csc(NC(=O)c4ccc(Br)cc4)n3)cc2N1
720 | COc1ccc(OC)c(S(=O)(=O)N2CCCOCCNC(=O)[C@@H]3CCC[C@@H]32)c1
1040 | COc1ccc(OC)c(-c2csc(NC(=O)c3ccccc3)n2)c1
923 | CC(C)Cn1nc(CNC(=O)c2ccccn2)c2ccccc21
576 | CCn1cc(CC(=O)NCCOC)c2cccnc21
760 | COc1cccc(NC(=O)C2CCN(S(=O)(=O)c3cc(C(=O)N(C)C)cs3)CC2)c1
941 | COc1ccc(C2CC(=O)N(c3ccc(C)cc3C)C(=O)C2)cc1
796 | COc1cccc(-c2noc(-c3nn(-c4ccc(F)c(F)c4)ccc3=O)n2)c1OC
925 | Cc1csc(-c2ccc(N3CCN(C(=O)COc4ccc(Cl)cc4)CC3)nc2)n1
919 | CCc1noc(NC(C)=O)c1-c1ccc(C)c(S(=O)(=O)N2CCN(c3ccc(OC)cc3)CC2)c1
1270 | CCN(C(=O)c1cccc(OC)c1)c1nc(-c2ccccc2)cs1
1030 | Cc1ccc(-n2ccc(=O)c(-c3nc(-c4ccc(F)c(Cl)c4)no3)n2)cc1
598 | Cc1ccc(CNC(=O)C2(C)Cn3nc(C(=O)NCCCN4CCCCC4)cc3C(=O)N2C)cc1 (stereo not drawn)
666 | CNC(=O)C1CCCN(c2nc3ncn(CC(=O)N4CCc5ccccc5C4)c(=O)c3s2)C1 (stereo not drawn)

SMILES | RP-LC retention time [s]
O=C(c1cnccn1)N1[C@H]2CC[C@@H]1c1cnc(-c3ccccc3)nc1C2 | 807
Cn1c(=O)n(C)c2cc(CNCCc3ccc(Cl)cc3)ccc21 | 630

From the METLIN SMRT retention time set (Domingo-Almenara et al. 2019)
